Assay results as given in US10195185B2, “3-(1H-imidazo[4,5-C]pyridin-2-yl)-1H-pyrazolo[4,3-B]pyridines and therapeutic uses thereof” (Samumed, LLC, priority 2015, dated 2019).
pEC50: −log10 of the molar value.

Experiments:
[1] = tested on: IL-6 in human monocyte cell line (THP-1 cells); test: IL-6 inhibition in LPS-stimulated THP-1 cells (HTRF); format: cell-based; conditions: IL-6 in LPS-stimulated THP-1 cells; for pEC50: HTRF; for inhibition at 10 µM: read-out: percent inhibition in brackets beside EC50 >10 μM
Procedure, shortened: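 THP-1 cells, serum-reduced (1% FBS) for 24 h, were preincubated with compound (10-point 1:3 series from 10 μM, 0.1% DMSO) for 2 h, then stimulated with 500 ng/mL LPS for 22 h at 37° C. IL-6 was read by HTRF (665/620 nm ratio) and normalized to DMSO. EC50 from four-parameter fit; % inhibition at 10 μM given if EC50 >10 μM.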

[2] = tested on: primary human mesenchymal stem cells (hMSCs); test: Induction of chondrogenesis in hMSCs (nodule area, Rhodamine B / Nile Red); format: cell-based; conditions: TGF-β3 as positive control; for Emax: read-out: Max. Activity as % TGF-β3 activity; for EC50: concentration required to induce 50% levels of chondrogenesis, read-out: Conc (nM) of 50% TGF-β3 activity
Procedure, shortened: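 Primary hMSCs (passage 3–6) in incomplete chondrogenic induction medium were treated 6 days at 37° C. with 1:3 dilutions (2700–10 nM in 96-well or 5000–2.2 nM in 384-well; 0.03% DMSO). Rhodamine B/Nile Red-stained nodule area was imaged, normalized to DMSO wells, and EC50 was set against TGF-β3 (10 ng/mL).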

Structure (SMILES)	pEC50 [1]	inhibition at 10 µM [1] [%]	Emax [2] [%]	EC50 [2] [nM]
CN(C)Cc1cncc(-c2ccc3[nH]nc(-c4nc5c(-c6cccs6)nccc5[nH]4)c3n2)c1 [Compound 349, N,N-dimethyl-1-(5-(3-(4-(thiophen-2-yl)-1H-imidazo[4,5-c]pyridin-2-yl)-1H-pyrazolo[4,3-b]pyridin-5-yl)pyridin-3-yl)methanamine]	< 5.00	0	75	10
CCCCC(=O)Nc1cncc(-c2ccc3[nH]nc(-c4nc5c(-c6cc(F)cc(NCCN(C)C)c6)nccc5[nH]4)c3n2)c1 [Compound 467, N-(5-(3-(4-(3-((2-(Dimethylamino)ethyl)amino)-5-fluorophenyl)-1H-imidazo[4,5-c]pyridin-2-yl)-1H-pyrazolo[4,3-b]pyridin-5-yl)pyridin-3-yl)pentanamide]	< 5.00	33.1	52	100
Fc1cccc(-c2nccc3[nH]c(-c4n[nH]c5ccc(C6=CCNCC6)nc45)nc23)c1 [Compound 506, 3-(4-(3-Fluorophenyl)-1H-imidazo[4,5-c]pyridin-2-yl)-5-(1,2,3,6-tetrahydropyridin-4-yl)-1H-pyrazolo[4,3-b]pyridine]	< 5.00	34.6	56	21
CC(C)CC(=O)Nc1cncc(-c2ccc3[nH]nc(-c4nc5c(-c6cccc(F)c6)nccc5[nH]4)c3n2)c1 [Compound 2, N-(5-(3-(4-(3-Fluorophenyl)-1H-imidazo[4,5-c]pyridin-2-yl)-1H-pyrazolo [4,3-b]pyridin-5-yl)pyridin-3-yl)-3-methylbutanamide]	< 5.00	2.5	58	21
Fc1cccc(-c2nccc3[nH]c(-c4n[nH]c5ccc(-c6cn[nH]c6)nc45)nc23)c1 [Compound 507, 3-(4-(3-Fluorophenyl)-1H-imidazo[4,5-c]pyridin-2-yl)-5-(1H-pyrazol-4-yl)-1H-pyrazolo[4,3-b]pyridine]	< 5.00	0	70	7
CN(C)CCOc1cncc(-c2ccc3[nH]nc(-c4nc5c(-c6cccc(F)c6)nccc5[nH]4)c3n2)c1 [Compound 515, 2-((5-(3-(4-(3-Fluorophenyl)-1H-imidazo[4,5-c]pyridin-2-yl)-1H-pyrazolo [4,3-b]pyridin-5-yl)pyridin-3-yl)oxy)-N,N-dimethylethan-1-amine]	5.45		59	2
CN(C)c1cncc(-c2ccc3[nH]nc(-c4nc5c(-c6cccc(F)c6)nccc5[nH]4)c3n2)c1 [Compound 7]	5.51		58	900
Fc1cccc(-c2nccc3[nH]c(-c4n[nH]c5ccc(C6CCNCC6)nc45)nc23)c1 [Compound 505, 3-(4-(3-Fluorophenyl)-1H-imidazo[4,5-c]pyridin-2-yl)-5-(piperidin-4-yl)-1H-pyrazolo[4,3-b]pyridine]	< 5.00	9.3	46	
Fc1cccc(-c2nccc3[nH]c(-c4n[nH]c5ccc(-c6cnccn6)nc45)nc23)c1 [Compound 520, 3-(4-(3-Fluorophenyl)-1H-imidazo[4,5-c]pyridin-2-yl)-5-(pyrazin-2-yl)-1H-pyrazolo[4,3-b]pyridine]	< 5.00	29.4	55	21
Cc1ccc(-c2nccc3[nH]c(-c4n[nH]c5ccc(-c6cncc(NC(=O)C(C)C)c6)nc45)nc23)s1 [Compound 401, N-(5-(3-(4-(5-Methylthiophen-2-yl)-1H-imidazo[4,5-c]pyridin-2-yl)-1H-pyrazolo [4,3-b]pyridin-5-yl)pyridin-3-yl)isobutyramide]	< 5.00	0	56	1670
CCNCc1cncc(-c2ccc3[nH]nc(-c4nc5c(-c6cc(F)cc(NCCN(C)C)c6)nccc5[nH]4)c3n2)c1 [Compound 454, N^1-(3-(2-(5-(5-((Ethylamino)methyl)pyridin-3-yl)-1H-pyrazolo[4,3-b]pyridin-3-yl)-1H-imidazo[4,5-c]pyridin-4-yl)-5-fluorophenyl)-N^2,N^2-dimethylethane-1,2-diamine]	5.99		36	
CC(C)Nc1cncc(-c2ccc3[nH]nc(-c4nc5c(-c6cc(F)cc(NCCN(C)C)c6)nccc5[nH]4)c3n2)c1 [Compound 460, N^1-(3-Fluoro-5-(2-(5-(5-(isopropylamino)pyridin-3-yl)-1H-pyrazolo[4,3-b]pyridin-3-yl)-1H-imidazo[4,5-c]pyridin-4-yl)phenyl)-N^2,N^2-dimethylethane-1,2-diamine]	5.90		116	30
